Earlier results as cited in patent US20120252687A1, “Scoring Function Penalizing Compounds Which Desolvate Charged Protein Side Chains Structure” (priority 2011, published 2012).

Experiments:
[1] = molecular target: Cdk2 (Homo sapiens, UniProt P24941); conditions: PDB complex
[2] = molecular target: Jnk (Homo sapiens, UniProt P53779); conditions: PDB complex
Sequence of Jnk (P53779 whole entry): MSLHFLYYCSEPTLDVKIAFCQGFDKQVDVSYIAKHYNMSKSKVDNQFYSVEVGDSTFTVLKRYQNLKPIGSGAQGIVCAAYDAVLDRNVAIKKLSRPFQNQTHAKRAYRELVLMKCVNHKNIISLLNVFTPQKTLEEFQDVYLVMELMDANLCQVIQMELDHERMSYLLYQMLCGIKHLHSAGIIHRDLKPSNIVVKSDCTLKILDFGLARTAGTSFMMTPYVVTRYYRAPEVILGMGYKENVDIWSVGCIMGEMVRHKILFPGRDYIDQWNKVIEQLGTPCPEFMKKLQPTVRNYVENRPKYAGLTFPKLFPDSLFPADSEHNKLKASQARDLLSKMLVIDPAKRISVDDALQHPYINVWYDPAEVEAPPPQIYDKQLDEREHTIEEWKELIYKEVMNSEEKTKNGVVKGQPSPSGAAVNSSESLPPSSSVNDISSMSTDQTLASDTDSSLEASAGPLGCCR

dG (experimental free energy of binding) [1] | dG (experimental free energy of binding) [2] | SMILES
−8.5 |  | NS(=O)(=O)c1ccc(Nc2cn3cc(C(=O)c4c(Cl)cccc4Cl)ccc3n2)cc1 [Cdk2_1ykr]
 | −7.5 | N#Cc1c(NC(=O)c2cccc3ccccc23)sc2c1CCN(C(=O)CCN1CCCCC1)C2 [Jnk_2o0u]
